The results in this text go back to patent US9144538B2, “Cosmetic compositions containing substituted azole and methods for alleviating the signs of photoaged skin” (The Procter & Gamble Company, priority 2013, dated 2015).

One series concerns the target CYP3A4 (Homo sapiens (Human), UniProt P08684). The experiment in a line: In vitro CYP3A4 inhibition assay (P450-GLO Assay kit). From the text: The metabolism of retinoic acid and vitamin D in the skin is incompletely understood, but there is evidence for the involvement of CYP26A1, CYP3A4 and CYP2C8 in catalyzing the 4-hydroxylation of all-trans RA to 4-hydroxy-RA. It is believed, without being limited by theory, that CYP3A4 may be particularly important for ATRA metabolism in the skin. This is because CYP3A4 is expressed in skin, involved in RA metabolism, a CYP with one of the broadest substrate specificities of all of the known CYPs and available as a human recombinant protein in a commercial kit. Thus, a commercially available CYP3A4 assay was used as a surrogate to predict RAMBA potential in the skin.
The commercially available P450-GLO™ Assay kit (Promega Corporation, Madison Wis.) was used to screen various compounds for potential CYP activity, specifically CYP3A4A inhibition activity. CYP3A4A is thought to be among the primary CYP isoforms responsible for retinoic acid metabolism in the skin.
A commercially available P450-GLO™ Assay kit (Promega Corporation, Madison Wis.) is used to screen various compounds for CYP3A4A inhibition activity. CYP3A4A is thought to be one of the primary CYP isoforms responsible for retinoic acid metabolism in the skin.

Series [1] concerns ATRA 4-hydroxylase (CYP) activity of pig liver microsomes. The experiment in a line: In vitro ATRA 4-hydroxylase activity assay to determine CYP inhibition (pig liver microsomes). An excerpt: Cytochrome P450 is a large and diverse group of enzymes that catalyze the oxidation of organic substances. […] Applicant evaluated the potential RAMBA activity of several azoles using pig liver microsomes, a rich source of CYP activity, comprising many different CYP 450 isoforms. […] As understanding in this area has progressed, a more specific CYP inhibition assay can be used to provide better predictivity of activity in human skin. Nevertheless, this assay may still be used as a general predictor of overall CYP activity.
All procedures were carried out under minimal light in order to prevent degradation of the retinoid samples.
Microsomal preparation: one lobe of fresh pig liver was obtained at the time of slaughter from a food-processing company and immediately placed in ice cold 15 mM KH2PO4/250 mM sucrose (pH 7.4) and kept on ice during transportation. A 10 g sample of liver was minced and homogenized in 30 mls of homogenization buffer (15 mM KH2PO4/250 mM sucrose) using a Tekmar homoginizer by pulsing 3 times 20 second pulses. […] The remaining pig liver was cut into 10-g pieces and wrapped in aluminum foil and stored at −80° C. The homogenates from the 8 samples were pooled and centrifuged at 13,000×g for 20 minutes at 4° C. to remove crude debris and the supernatant was further centrifuged at 100,000×g for 70 minutes at 4° C. The microsomal pellets were resuspended into 50 mls of 150 mM KH2PO4/1 mM DTT (pH 7.4) and 1 mL aliquots were stored at −80° C.
100-150 μg of pig liver microsomal protein in 150 mM KH2PO4 is incubated at 37° C. in the presence of radiolabeled ATRA and 5 mM NADPH for 90 min. The final ATRA concentration is 1 μM, as a combination of [20-Methyl-^3H]ATRA and unlabeled ATRA. Initially, radiolabeled ATRA may be used to assist in validating the method. Once retention times of retinoid metabolites are identified, unlabeled ATRA is used for screening. Compounds tested as possible competitive substrates are added to the assay 10 min prior to the addition of ATRA. Ethanol, containing 0.1% butylated hydroxytoluene (BHT) as an antioxidant, is used to stop the reactions. For recovery of ATRA the pH of reactions are adjusted to 3.0 before extraction with 0.1N HCl. Retinoids are extracted from the protein aqueous phase with 4 mL hexane, 1 ml 100 μg/ml BHT in water (pH 3). An additional 4 mlL of hexane (pH 3) is used for a second extraction. The organic extractions are pooled, evaporated to dryness using a speed vac, and resuspended in 62.5 μl acetonitrile containing 1 mg/ml BHT. Samples are analyzed by HPLC.
Mobile phases used for gradient elution of retinoids are those of Duell et al., J. Clin. Invest. […] Mobile phase A is acetonitrile:0.02 M ammonium acetate:acetic acid (1:1:0.01) and mobile phase B is acetonitrile:0.2M ammonium acetate:acetic acid (19:1:0.008). At the start of the HPLC run, solvent A is run 100% followed by a linear gradient to solvent B at 3 minutes, a shallow gradient to 81% solvent B at 38 minutes, and 100% solvent B at 40 minutes. […] Effluent from the HPLC column flows directly into a flow-through scintillation spectrometer (β-RAM). Because of the sensitivity limitations of the β-RAM spectrometer, it is not used to quantitate peak areas but rather to confirm ATRA and ATRA 4-hydroxylase activity. Calculated peaks areas (using Millenium software—Waters Corp.) of ATRA and ATRA metabolites are used to quantify relative activity levels.

Where [2] appears, read: read-out: IC50 (uM), CYP3A4 inhibition, P450-GLO Assay kit.
[3] abbreviates: read-out: IC50 (μM), in vitro 4-hydroxylase inhibition assay, pig liver microsomes, 1 μM ATRA, 90 min at 37° C.

Where two headings read alike, the source gives them in different places.

Chain of CYP3A4 (P08684 whole entry): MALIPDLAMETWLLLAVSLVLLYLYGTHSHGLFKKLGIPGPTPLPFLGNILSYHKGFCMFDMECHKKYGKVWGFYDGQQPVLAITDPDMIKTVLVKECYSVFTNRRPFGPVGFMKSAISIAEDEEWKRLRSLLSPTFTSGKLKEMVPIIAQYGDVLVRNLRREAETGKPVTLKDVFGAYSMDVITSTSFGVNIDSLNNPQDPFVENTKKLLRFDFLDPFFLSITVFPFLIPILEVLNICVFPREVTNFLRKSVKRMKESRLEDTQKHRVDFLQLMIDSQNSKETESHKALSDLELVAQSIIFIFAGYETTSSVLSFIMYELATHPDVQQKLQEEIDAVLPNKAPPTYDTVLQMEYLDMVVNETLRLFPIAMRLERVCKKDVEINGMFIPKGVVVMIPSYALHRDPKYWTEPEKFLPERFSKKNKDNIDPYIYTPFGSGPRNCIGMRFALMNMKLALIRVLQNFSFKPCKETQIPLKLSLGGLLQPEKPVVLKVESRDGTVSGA

As to `CC(=O)n1ccnc1` [1-Acetylimidazole], on CYP3A4 (setting [2]), the IC50 is above 10 µM.

The compound `Cn1ccnc1` [1-Methylimidazole] had a half-maximal inhibitory concentration (IC50) against CYP3A4 (human) above 10 µM. On to `C=Cn1ccnc1` [1-Vinylimidazole], for which, on CYP3A4 (setting [2]), the IC50 is above 10 µM.

For the compound `Cc1nccn1Cc1ccccc1` [1-benzyl-2-methylimidazole], the IC50 in series [1] (pig, 90 min, pH 7.4) is 308 µM. For the compound `c1ccc(Cn2ccnc2)cc1` [1-benzylimidazole], in series [1] (setting [3]), the half-inhibitory concentration (IC50) turned out to be 77.5 µM. Turning to `c1ccc(-n2ccnc2)cc1` [1-phenylimidazole], in series [1] (pig liver microsomes), the “CYP inhibitory activity (in words), 4-hydroxylase assay” value is reported as “in the same range as climbazole”. Moreover, the concentration for half-maximal inhibition (IC50) in series [1] (setting [3]) worked out at 52.5 µM. For the same compound, at CYP3A4 (P450-GLO Assay kit), the “hit / no hit, inhibition of CYP3A4” value was “Hit” and the “inhibitory activity in the CYP3A4 assay (in words)” value is reported as “showed inhibitory activity”. On to `O=C(n1ccnc1)n1ccnc1` [1′-1-Carbonylimidazole], for which the IC50 on CYP3A4 (setting [2]) was above 10 µM.

Consider `Clc1ccccc1-c1nc2ccccc2[nH]1` [2-(2-Chlorophenyl) benzimidazole], for which, on CYP3A4 (setting [2]), the half-inhibitory concentration (IC50) was above 10 µM.

For `CCCCc1nc(C=O)c(Cl)[nH]1` [2-Butyl-4-chloro-5-formylimidazole], the half-inhibitory concentration (IC50) on CYP3A4 (human) was above 10 µM.

Regarding `CCc1nc(C)c[nH]1` [2-Ethyl-4-methylimidazole], on CYP3A4 (setting [2]), the IC50 was above 10 µM. At CYP3A4 (human), `CCc1ncc[nH]1` [2-Ethylimidazole] came in with an IC50 above 10 µM. Turning to `Cc1ncc[nH]1` [2-Methylimidazole], the IC50 on CYP3A4 (setting [2]) is above 10 µM. Regarding `c1ccc(-c2ncc[nH]2)cc1` [2-phenylimidazole, 2-Phenylimidazole], the “CYP inhibitory activity (in words), 4-hydroxylase assay” value in series [1] (pig liver microsomes) is recorded as “lacked any significant inhibitory activity”. The concentration for half-maximal inhibition (IC50) in series [1] (setting [3]) is above 500 µM; at CYP3A4 (human) it was above 10 µM. Also, the “inhibitory activity in the CYP3A4 assay (in words)” value against CYP3A4 is “did not”. For the same compound, at CYP3A4 (P450-GLO Assay kit), the “hit / no hit, inhibition of CYP3A4” value is on record as “no hit (weak/no inhibition (IC50 value >10 μM))”. In the case of `c1ccc(-c2nc[nH]c2-c2ccccc2)cc1` [4,5-diphenylimidazole], in series [1] (pig, 90 min, pH 7.4), the IC50 is 100 µM. As to `CC(=O)c1ccc(-n2ccnc2)cc1` [4′-(Imidazol-1yl) acetophenome], the “hit / no hit, inhibition of CYP3A4” value at CYP3A4 (human) is given as “Hit”.

On to `Clc1ncnc2[nH]cnc12` [6-Chloropurine], for which the IC50 at CYP3A4 (human) was above 10 µM.

At CYP3A4 (human), `Nc1nc[nH]n1` [Amitrol] showed an IC50 above 10 µM.

For the compound `CCCCNC(=O)n1c(NC(=O)OC)nc2ccccc21` [Benomyl], the “hit / no hit, inhibition of CYP3A4” value on CYP3A4 (P450-GLO Assay kit) was “no hit (weak/no inhibition (IC50 value >10 μM))”. Moreover, the IC50 at CYP3A4 (setting [2]) is above 10 µM.

Take `c1ccc2[nH]cnc2c1` [Benzimidazole]: the 50% inhibitory concentration (IC50) on CYP3A4 (setting [2]) is above 10 µM.

Consider `CC1=N[C@H](C(=O)O)CCN1` [Ectoine], for which, on CYP3A4 (human), the IC50 was above 10 µM. For `c1coc(-c2nc3ccccc3[nH]2)c1` [Fuberidazole], the “hit / no hit, inhibition of CYP3A4” value on CYP3A4 (human) is “no hit >10 uM (key: hit: strong inhibition (IC50 value<10 μM); no hit: weak/no inhibition (IC50 value >10 μM))”. Moreover, the concentration for half-maximal inhibition (IC50) at CYP3A4 (setting [2]) is above 10 µM. `CC(NC(=O)[C@@H](N)CCC(=O)O)c1ncc[nH]1` (stereo partly drawn) [Glutamylamidoethyl] gave an IC50 at CYP3A4 (human) above 10 µM. In the case of `N=C(N)c1ccc(OCCCCCCOc2ccc(C(=N)N)cc2)cc1` [Hexamidine diisethionate], at CYP3A4 (setting [2]), the IC50 was above 10 µM.

As to `N[C@@H](Cc1c[nH]cn1)C(=O)O` [Histidine], the IC50 on CYP3A4 (human) was above 10 µM. At CYP3A4 (human), `c1ccc(-c2n[nH]cc2-c2ccnc3ccccc23)nc1` [LY-364947] displayed an IC50 above 10 µM. On to `Cc1cccc(C)c1N(Cn1cccn1)C(=O)CCl` [Metazachlor], for which the “hit / no hit, inhibition of CYP3A4” value on CYP3A4 (human) was “no hit >10 uM (key: hit: strong inhibition (IC50 value<10 μM); no hit: weak/no inhibition (IC50 value >10 μM))”. The half-inhibitory concentration (IC50) at CYP3A4 (setting [2]) is above 10 µM. Take `Cc1ccc2cc3c(ccc4ccccc43)c3c2c1CC3` [Methylcholanthrene]: at CYP3A4 (P450-GLO Assay kit), the “hit / no hit, inhibition of CYP3A4” value is “Near Hit”. Also, the IC50 on CYP3A4 (setting [2]) is above 10 µM. For `CCc1cccc(C)c1N(C(=O)CCl)[C@@H](C)COC` [Metolachlor] the same measures were “no hit (weak/no inhibition (IC50 value >10 μM))” and above 10 µM.

Consider `CC(C)(C(=O)c1cccnc1)c1cccnc1` [Metyrapone], for which the “hit / no hit, inhibition of CYP3A4” value at CYP3A4 (human) is recorded as “Hit”. For the compound `Clc1ccc(COC(Cn2ccnc2)c2ccc(Cl)cc2Cl)c(Cl)c1` (stereo not drawn) [Miconazole], on CYP3A4 (human), the “hit / no hit, inhibition of CYP3A4” value is “Hit 5 uM”. Consider `NCCCn1ccnc1` [N-(3-Aminopropyl) imidazole], for which, on CYP3A4 (human), the IC50 is above 10 µM. Turning to `O=C(/C=C/C=C/c1ccc2c(c1)OCO2)N1CCCCC1` [Piperine], at CYP3A4 (human), the concentration for half-maximal inhibition (IC50) was around 10 µM and the “hit / no hit, inhibition of CYP3A4” value was “Hit”. With `CC(=O)/C=C/C1=C(C)CCCC1(C)C` [β-Ionone], the IC50 at CYP3A4 (human) was above 10 µM. With Diltazem, the “hit / no hit, inhibition of CYP3A4” value on CYP3A4 (P450-GLO Assay kit) is “no hit (weak/no inhibition (IC50 value >10 μM))”. Moreover, the concentration for half-maximal inhibition (IC50) on CYP3A4 (setting [2]) is above 10 µM.
